This passage reports IC50 results from patent US20090170867A1, “TRPV1 ANTAGONISTS INCLUDING SULFONAMIDE SUBSTITUENT AND USES THEREOF” (Shionogi & Co., Ltd., priority 2007, published 2009).

Test [1] addresses T1, human TRPV1 (Homo sapiens, UniProt Q8NER1).
T1 construct: using primers designed surrounding the complete hTRPV1 open reading frame; expressed in transfected cells; host or cells: CHO-K1 cells stably transfected with pcDNA3.1(-)-hVR1 plasmid
As to the kind of experiment: Capsaicin-based assay, Protocol 2 (TRPV1/CHO cells, Fluo-4, FLIPR). The test is classed as cell-based. The conditions noted are these: capsaicin 100 nM final, mean ± SEM, number of trials in parentheses, read-out: TRPV1 IC50 Potency, Human Capsaicin CHO (hCAP-CHO). An excerpt: The TRPV1/CHO cell line was generated as described below. […] The resulting PCR products were purified from agarose gels using Gel Band Purification Kit (GE Healthcare Bioscience) and were subcloned into pCR-Blunt vector (Invitrogen). The cloned cDNA was fully sequenced using a fluorescent dye-terminator reagent (BigDye Terminator ver3.1 Cycle Sequencing Kit, Applied Biosystems) and ABI Prism 3100 genetic analyzer (Applied Biosystems). The pCR-Blunt vector containing the hTRPV1 cDNA was subjected to restriction digestion with EcoRI. The restriction fragment was subcloned into expression vector pcDNA3.1 (-) (Invitrogen) and named pcDNA3.1 (-)-hVR1 plasmid. The sequence of the cDNA encoding TRPV1 is available at GenBank accession number AJ277028. […] The cells were transfected with the pcDNA3.1 (-)-hVR1 plasmid using FuGENE6 (Roche) according to the manufacturer's protocol. 24 hr after transfection, neomycin-resistant cells were selected using 1 mg/mL G418 (Nacalai Tesque). […] The cells expressing hTRPV1 were cultured in the growth medium supplemented with 1 mg/mL G418. […] Subsequently, the cells were loaded by incubation in 0.1 mL of wash buffer containing Fluo-4 at 3 μM final concentration. After 1 hour, the cells were washed twice with 0.2 mL wash buffer and resuspended in 0.1 mL wash buffer. The plates were then transferred to a Fluorescence Imaging Plate Reader (Molecular Devices). Fluorescence intensity was monitored for 15 seconds to establish a baseline. […] The final concentration of the compound was adjusted to range from 100 μM to 1.5625 μM. […] Data were collected over the entire time course and analyzed using Excel and the curve-fitting formula GraphPad Prism.

The target of test [2] is T1, human TRPV1. The test can be described thus: pH-based assay, Protocol 2 (TRPV1/CHO cells, Fura-2 AM, FDSS-3000, pH 5.0-5.1). The test is classed as cell-based. To be noted: H2SO4 agonist, mean ± SEM, number of trials in parentheses, read-out: TRPV1 IC50 Potency, Human pH CHO (hpH-CHO). An excerpt:
For Protocol 2, a Chinese Hamster Ovary cell line (CHO) that has been engineered to constitutively express human recombinant TRPV1 was used (TRPV1/CHO cells). The TRPV1/CHO cell line was generated as described below.
The resulting PCR products were purified from agarose gels using Gel Band Purification Kit (GE Healthcare Bioscience) and were subcloned into pCR-Blunt vector (Invitrogen). The cloned cDNA was fully sequenced using a fluorescent dye-terminator reagent (BigDye Terminator ver3.1 Cycle Sequencing Kit, Applied Biosystems) and ABI Prism 3100 genetic analyzer (Applied Biosystems). The pCR-Blunt vector containing the hTRPV1 cDNA was subjected to restriction digestion with EcoRI. The restriction fragment was subcloned into expression vector pcDNA3.1 (−) (Invitrogen) and named pcDNA3.1 (−)-hVR1 plasmid. The sequence of the cDNA encoding TRPV1 is available at GenBank accession number AJ277028.
CHO-K1 cells were maintained in growth medium consisting of α-MEM, 10% FBS (Hyclone), and 100 IU/mL of penicillin-100 μg/mL of streptomycin mixed solution (Nacalai Tesque, Japan) at 37° C. in an environment of humidified 95% air and 5% CO2. The cells were transfected with the pcDNA3.1 (−)-hVR1 plasmid using FuGENE6 (Roche) according to the manufacturer's protocol. 24 hr after transfection, neomycin-resistant cells were selected using 1 mg/mL G418 (Nacalai Tesque). After 2 weeks, individual colonies were picked, expanded, and screened for the expression of hTRPV1 in the capsaicin-induced Ca^2+ influx assay (see below) with a FLIPR (Molecular Devices). A clone with the largest Ca^2+ response to capsaicin was selected and re-cloned by the same procedure. The cells expressing hTRPV1 were cultured in the growth medium supplemented with 1 mg/mL G418.
TRPV1/CHO cells were seeded in the 96-well clear-bottom black-wall plate (Nunc) at densities of 1-2×10^4 cells/well and grown in 100 μL of culture medium (alpha-MEM supplemented with 10% FBS, 20 mM HEPES, 1 mg/mL geneticin and 1% antibiotic-antimycotic mixed stock solution) for 1-2 days before the experiment.
Different agonist solutions with sulfuric acid concentrations of from 15 mM to 18 mM (see FIG. 1) were prepared by diluting 1M sulfuric acid with measuring buffer. The different sulfuric acid concentrations in the agonist solutions were selected such that a 1:4 dilution would result in a final sulfuric acid concentration of between 3.0 mM to 3.6 mM, respectively, as indicated in FIG. 1.
The cells were stimulated using 3.0 mM (well number B1-6), 3.1 mM (C1-6), 3.2 mM (D1-6), 3.3 mM (E1-6), 3.4 mM (F1-6), 3.5 mM (G1-6), or 3.6 mM (H1-6) H2SO4 or pH 7.2 measuring buffer without H2SO4 (A1-6) (FIG. 2).
(1) Culture medium was removed using an 8-channel-pipette (Rainin, USA) from the 96-well plate and the wells were refilled with 100 μL of loading buffer (20 mM HEPES, 115 mM NaCl, 5.4 mM KCl, 0.8 mM MgCl2, 1.8 mM CaCl2, 13.8 mM D-glucose, 2.5 mM probenecid, pH 7.4) containing 5 μM Fura-2 AM (Dojin, Japan).
(2) The 96-well plate was incubated at 37° C. for 45 min.
(3) The loading buffer was removed from each well. The cells were subsequently washed twice with 150 μL of measuring buffer (20 mM HEPES, 115 mM NaCl, 5.4 mM KCl, 0.8 mM MgCl2, 5.0 mM CaCl2, 13.8 mM D-glucose, 0.1% BSA, pH 7.4) (no probenecid). The wells were then refilled with 80 μL of measuring buffer.
(4) After an incubation at 4° C. for 15 min, the 96-well plate was transferred to FDSS-3000 (Hamamatsu Photonics, Japan).
(5) The Fura-2 fluorescent intensity was monitored at a wavelength of 340 nm and at 380 nm, respectively, at a rate of 0.5 Hz for a total of 240 seconds.

T1 sequence (Q8NER1 whole entry): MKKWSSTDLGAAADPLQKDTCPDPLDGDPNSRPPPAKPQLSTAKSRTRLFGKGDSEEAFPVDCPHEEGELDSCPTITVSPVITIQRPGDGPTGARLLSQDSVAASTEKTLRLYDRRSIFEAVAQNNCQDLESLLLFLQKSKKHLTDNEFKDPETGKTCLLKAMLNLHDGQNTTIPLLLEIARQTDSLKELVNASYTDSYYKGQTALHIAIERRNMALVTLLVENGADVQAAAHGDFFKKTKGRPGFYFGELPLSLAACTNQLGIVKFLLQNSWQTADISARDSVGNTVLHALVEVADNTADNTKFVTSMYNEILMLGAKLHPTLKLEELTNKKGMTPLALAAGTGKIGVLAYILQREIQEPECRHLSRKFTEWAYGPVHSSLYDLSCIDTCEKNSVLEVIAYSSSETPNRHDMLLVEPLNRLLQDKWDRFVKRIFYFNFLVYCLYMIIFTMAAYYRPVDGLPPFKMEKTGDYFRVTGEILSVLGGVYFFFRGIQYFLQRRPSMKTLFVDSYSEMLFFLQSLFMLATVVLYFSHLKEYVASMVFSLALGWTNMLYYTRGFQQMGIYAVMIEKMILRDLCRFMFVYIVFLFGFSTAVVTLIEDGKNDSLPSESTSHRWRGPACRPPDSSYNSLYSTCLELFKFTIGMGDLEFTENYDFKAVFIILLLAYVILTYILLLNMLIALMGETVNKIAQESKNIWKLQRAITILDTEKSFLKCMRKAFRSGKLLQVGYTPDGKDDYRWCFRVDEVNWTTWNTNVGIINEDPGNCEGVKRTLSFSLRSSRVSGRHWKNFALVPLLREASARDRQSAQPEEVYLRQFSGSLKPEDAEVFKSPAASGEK

`COCc1cnc(C2=CCN(C(=O)Nc3ccc(S(=O)(=O)C(F)(F)F)cc3)CC2)c(Cl)c1` [Compound A3]: the IC50 on human TRPV1 [1] was found to be 414 ± 99.6 nM; at human TRPV1 [2], 310 ± 38.9 nM.
Taken in the same sequence, the figures for `O=C(Nc1ccc(C(F)(F)F)cn1)N1CC=C(c2ncc([C@@H](O)CO)cc2Cl)CC1` [Compound N3, (R)-4-(3-chloro-5-(1,2-dihydroxyethyl)pyridin-2-yl)-N-(5-(trifluoromethyl)pyridin-2-yl)-5,6-dihydropyridine-1(2H)-carboxamide] were 161 ± 41.7 nM and 223 ± 14 nM.
On the same counts, the results for `O=C(Nc1nc2ccc(Cl)cc2s1)N1CCC(F)(c2ncc([C@H](O)CO)cc2Cl)CC1` [Compound Z4] are 62.8 ± 11.4 nM and 16.5 ± 3.3 nM.
On the same counts, the results for `O=C(Nc1ccc(OC(F)(F)F)cc1)N1CC=C(c2ncc([C@H](O)CO)cc2F)CC1` [Compound V1] are 66.3 ± 5.7 nM and 22.4 ± 1.1 nM.
In the case of `O=C(Nc1ccc(C(F)(F)F)c(F)c1)N1CC=C(c2ncc([C@@H](O)CO)cc2Cl)CC1` [Compound W5], the IC50 on human TRPV1 [1] was 423 ± 123 nM; on human TRPV1 [2] it was 71.2 ± 10.5 nM.
As to `O=C(Nc1nc2ccc(Cl)cc2s1)N1CC=C(c2ncc([C@H](O)CO)cc2F)CC1` [Compound C4], the IC50 on human TRPV1 [1] turned out to be 66.2 ± 7.5 nM; on human TRPV1 [2], 18.6 ± 2.8 nM.
For `O=C(Nc1ccc(C(F)(F)F)c(F)c1)N1CC=C(c2ncc(CO)cc2Cl)CC1` [Compound M2], the values for the IC50 on human TRPV1 [1] and at human TRPV1 [2] were 156 ± 5.6 nM and 42 ± 9.1 nM, respectively.
On the same counts, the results for `Cc1cc(NC(=O)N2CCC(F)(c3ncc([C@@H](O)CO)cc3Cl)CC2)ccc1OC(F)(F)F` [Compound V5] are 45.5 ± 2.1 nM and 10.1 ± 1.4 nM.
On the same counts, the results for `O=C(Nc1ccc(S(=O)(=O)C(F)(F)F)cc1)N1CCC(F)(c2ncc([C@@H](O)CO)cc2Cl)CC1` [Compound B4] are 57.2 ± 11.6 nM and 5.8 ± 1.3 nM.
Take `CC(C)Oc1ccc(NC(=O)N2CC=C(c3ncc(CO)cc3Cl)CC2)cc1C(F)(F)F` [Compound I2]: the IC50 is 122 ± 7.1 nM on human TRPV1 [1] and 18 ± 1 nM on human TRPV1 [2].
On the same counts, the results for `O=C(Nc1ccc(Cl)c(C(F)(F)F)c1)N1CCC(F)(c2ncc([C@H](O)CO)cc2F)CC1` [Compound E5] are 133 ± 28.5 nM and 33.8 nM.
With `O=C(Nc1ccc(C(F)(F)F)cn1)N1CCC(F)(c2ncc([C@@H](O)CO)cc2Cl)CC1` [Compound D4], the figures for the IC50 at human TRPV1 [1] and at human TRPV1 [2] were 69.6 ± 6.9 nM and 54.8 nM, respectively.
On the same counts, the results for `CN(C)c1ccc(NC(=O)N2CC=C(c3ncc(CO)cc3Cl)CC2)cc1C(F)(F)F` [Compound X1] are 74.4 ± 11.5 nM and 18.8 ± 1.6 nM.
On the same counts, the results for `O=C(Nc1ccc(C(F)(F)F)c(Cl)c1)N1CC=C(c2ncc(CO)cc2Cl)CC1` [Compound L2] are 153 ± 24.4 nM and 57.4 ± 9.1 nM.
Taken in the same sequence, the figures for `O=C(Nc1ccc(C(F)(F)F)cc1)N1CCC(F)(c2ncc([C@@H](O)CO)cc2Cl)CC1` [Compound B1] were 7.81 ± 1.2 nM and 7.4 ± 0.3 nM.
For the compound `CC(C)(C)c1ccc(NC(=O)N2CCN(c3ncc([C@H](O)CO)cc3Cl)CC2)cc1` [Compound K6, (S)—N-(4-tert-butylphenyl)-4-(3-chloro-5-(1,2-dihydroxyethyl)pyridin-2-yl)piperazine-1-carboxamide], the IC50 at human TRPV1 [1] was 9.8 ± 2.3 nM; on human TRPV1 [2] it was 0.8 ± 0.1 nM.
On the same counts, the results for `O=C(Nc1ccc(Br)c(C(F)(F)F)c1)N1CC=C(c2ncc([C@H](O)CO)cc2Cl)CC1` [Compound P2] are 173 ± 40.3 nM and 44.4 nM.
On the same counts, the results for `O=C(Nc1ccc(C(F)(F)F)c(F)c1)N1CC=C(c2ncc([C@H](O)CO)cc2F)CC1` [Compound J1] are 34.5 ± 17.5 nM and 18 nM.
On the same counts, the results for `O=C(Nc1ccc(OC(F)(F)F)cc1)N1CCN(c2ncc([C@H](O)CO)cc2Cl)CC1` [Compound L6, (S)-4-(3-chloro-5-(1,2-dihydroxyethyl)pyridin-2-yl)-N-(4-(trifluoromethoxy)phenyl)piperazine-1-carboxamide] are 14.2 ± 1.4 nM and 5.8 nM.
Take `O=C(Nc1nc2ccc(Cl)cc2s1)N1CCC(F)(c2ncc([C@H](O)CO)cc2F)CC1` [Compound W3]: the values for the IC50 at human TRPV1 [1] and at human TRPV1 [2] were 35.6 ± 8.9 nM and 22.4 nM, respectively.
As for `O=C(Nc1nc2ccc(F)cc2s1)N1CCC(F)(c2ncc([C@@H](O)CO)cc2Cl)CC1` [Compound H4], the values for the IC50 at human TRPV1 [1] and at human TRPV1 [2] were 176 ± 28.4 nM and 97 ± 9.9 nM, respectively.
Taken in the same sequence, the figures for `O=C(Nc1ccc(C(F)(F)F)c(F)c1)N1CC=C(c2ncccc2F)CC1` [Compound 202] were 182 nM and 590 nM.
Taken in the same sequence, the figures for `O=C(Nc1ccc(S(=O)(=O)C(F)(F)F)cc1)N1CC=C(c2ncc([C@H](O)CO)cc2Cl)CC1` [Compound Q1] were 51 ± 16.4 nM and 8.1 ± 0.7 nM.
On the same counts, the results for `O=C(Nc1ccc(OCC2CC2)c(C(F)(F)F)c1)N1CC=C(c2ncc(CO)cc2Cl)CC1` [Compound Y2] are 351 ± 69.8 nM and 59.9 ± 11.8 nM.
Regarding `O=C(Nc1ccc(C(F)(F)F)cn1)N1CCC(F)(c2ncc([C@@H](O)CO)cc2F)CC1` [Compound Y5], the IC50 stood at 196 ± 37.7 nM at human TRPV1 [1] and 108 ± 7.7 nM on human TRPV1 [2].
On the same counts, the results for `O=C(Nc1ccc(C(F)(F)F)c(Cl)c1)N1CC=C(c2ncc(CO)cc2Cl)CC1` [Compound S2] are 205 ± 35.4 nM and 31.9 ± 2.5 nM.
As for `O=C(Nc1ccc(OC(F)(F)F)c(Br)c1)N1CC=C(c2ncc(CO)cc2Cl)CC1` [Compound R2], the IC50 on human TRPV1 [1] is 200 ± 26.8 nM; on human TRPV1 [2], 49.6 ± 3.4 nM.
For the compound `O=C(Nc1nc2ccc(F)cc2s1)N1CC=C(c2ncc(CO)cc2Cl)CC1` [Compound W2], the IC50 on human TRPV1 [1] turned out to be 245 ± 34.4 nM; on human TRPV1 [2] it was 241 ± 34.9 nM.
On the same counts, the results for `O=C(Nc1ccc(Cl)c(C(F)(F)F)c1)N1CCC(F)(c2ncc([C@H](O)CO)cc2Cl)CC1` [Compound T1] are 60.3 ± 19 nM and 29.7 ± 2.3 nM.
